Assay results published in publication PMC4255673 (Analytical Chemistry, 2014).
Entries after “also recorded” stand apart in the source; their conditions may differ. Bridges are numbered along the chain shown (N, C = ends).

Columns and labels:
KDM4C [1] = experiment: In vitro TR-FRET demethylase assay / KDM4C inhibition; assay type: biochemical; details: nonbinding control peptide; assay not described
KDM4C [2] = experiment: HDX-MS of KDM4C ± peptide; assay type: binding
KDM4C [3] = details: cell-based assay; cited from earlier work
KDM4C [4] = details: cited from earlier work; for inhibition constants: TR-FRET demethylase assay; for apparent increase in activity of second generation peptides over initial leads: vs initial peptide leads

Substance | KDM4C inhibition (control peptide) (KDM4C [1]) | isotopic distribution / EX1 kinetics in site D (331–344) (KDM4C [2]; KDM4C 331–344, HDX time course, bimodal fit with HX-Express, peptide 160 μM) | HDX of helix 359–370 (KDM4C [2]; KDM4C 359–370, Figure S1 / data not shown) | inhibitory activity in cells (KDM4C [3]) | inhibition constants (KDM4C [4]) | apparent increase in activity of second generation peptides over initial leads (KDM4C [4]) [fold]
H-ACKWMDDGYCGGG-NH2 (disulfide 2-10 (inferred)) [Peptide 4] | noninhibitory |  |  |  |  | 
H-ACYTRNMNQC-NH2 (also: sidechain bridge or staple (positions not given here)) [Peptide 2] |  | confirmed the occurrence of EX1 kinetics | the perturbation in HDX along site 359–370 was only significant after 10 min; also recorded: Helix 359–370 shows reduced HDX (significant only after 10 min; see Figure S1, Supporting Information) but no EX1 exchange kinetics | none of the peptides showed any inhibitory activity | in the high μM range | 10
H-CKWMADGYC-NH2 (disulfide 1-9 (inferred)) [Peptide 3] |  |  |  | none of the peptides showed any inhibitory activity | in the high μM range | 10
